According to US4262004A, “2,3-Dihydro-imidazo[2,1-b]benzothiazole compositions to treat depressions” (Janssen Pharmaceutica, N.V., priority 1979, dated 1981):
Where a name gives a salt, the structure may show the parent alone. Read-outs that look alike come from different tables or passages of the source.

Tests used:
[1] = target: T1, monoamine oxidase (type A enzyme, tryptamine substrate) (Rattus norvegicus, UniProt P21396); assay: in-vitro monoamine oxidase inhibition, [14C]tryptamine as substrate; format: biochemical; conditions: Table I; monoamine oxidase extract of Wistar rat tissue, pH 7.4, 37° C., 20 minutes; read-out: I.C.50-value using as substrate [14C]tryptamine
T1 sequence (P21396 1-526): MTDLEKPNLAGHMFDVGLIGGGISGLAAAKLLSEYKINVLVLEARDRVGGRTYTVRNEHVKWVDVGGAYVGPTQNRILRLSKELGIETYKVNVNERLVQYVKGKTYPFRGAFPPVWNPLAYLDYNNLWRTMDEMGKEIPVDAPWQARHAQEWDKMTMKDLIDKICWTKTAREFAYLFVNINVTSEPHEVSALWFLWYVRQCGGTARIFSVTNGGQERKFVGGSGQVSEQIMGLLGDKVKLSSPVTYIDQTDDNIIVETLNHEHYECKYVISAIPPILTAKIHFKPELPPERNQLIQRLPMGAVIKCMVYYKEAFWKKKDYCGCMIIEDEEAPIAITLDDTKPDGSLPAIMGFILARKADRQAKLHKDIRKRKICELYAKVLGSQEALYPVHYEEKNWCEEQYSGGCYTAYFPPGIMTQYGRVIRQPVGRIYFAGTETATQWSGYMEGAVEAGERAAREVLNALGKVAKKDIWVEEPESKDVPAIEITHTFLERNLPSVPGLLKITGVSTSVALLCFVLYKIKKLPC

[2] = target: T2, monoamine oxidase (type B enzyme, β-phenylethylamine substrate) (Rattus norvegicus, UniProt P19643); assay: in-vitro monoamine oxidase inhibition, [14C]phenylethylamine hydrochloride as substrate; format: biochemical; conditions: monoamine oxidase extract of Wistar rat tissue, pH 7.4, 37° C., 20 minutes
T2 sequence (P19643 1-520): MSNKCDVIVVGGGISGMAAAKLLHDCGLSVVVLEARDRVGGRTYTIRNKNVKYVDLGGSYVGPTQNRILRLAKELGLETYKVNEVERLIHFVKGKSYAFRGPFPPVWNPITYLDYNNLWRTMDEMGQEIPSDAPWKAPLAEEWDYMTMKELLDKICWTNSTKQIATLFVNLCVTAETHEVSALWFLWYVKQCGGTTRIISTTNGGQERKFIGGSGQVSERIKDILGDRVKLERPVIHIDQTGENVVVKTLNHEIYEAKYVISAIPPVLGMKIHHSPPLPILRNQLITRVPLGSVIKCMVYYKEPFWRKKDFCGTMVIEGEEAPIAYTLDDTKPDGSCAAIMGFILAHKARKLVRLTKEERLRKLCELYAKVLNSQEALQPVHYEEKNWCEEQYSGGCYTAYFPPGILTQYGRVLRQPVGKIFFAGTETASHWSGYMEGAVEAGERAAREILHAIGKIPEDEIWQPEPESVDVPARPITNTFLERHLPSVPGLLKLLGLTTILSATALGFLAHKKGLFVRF

[3] = Table I, read-out: I.C.50-value using as substrate [14C]phenylethylamine . HCl

| SMILES | IC50 [1] | IC50 [2, 3] | IC50 ([2]; Table 2, read-out: I.C.50-value using as substrate [14C]phenylethylamine hydrochloride) |
| --- | --- | --- | --- |
| Clc1ccc(CNc2ccc3c(c2)N2CCN=C2S3)cc1 [6-NHCH2(4-ClC6 H4)] | 26 nM | 70 nM | – |
| COc1ccc2c(c1)SC1=NCCN12 [Example 7-OCH3] | 280 nM | 14000 nM | – |
| CC(CO)Nc1ccc2c(c1)N1CCN=C1S2 (stereo not shown) | 130 nM | – | – |
| CCCN(C=C(C(=O)OCC)C(=O)OCC)c1ccc2c(c1)SC1=NCCN12 [7-N(C3 H7)CHC(COOEt)2] | 220 nM | 2200 nM | – |
| CCOC(=O)C(=CNc1ccc2c(c1)SC1=NCCN12)C(=O)OCC [7-NHCHC(COOEt)2, diethyl 2-[(2,3-dihydroimidazo[2,1-b]benzothiazol-7-yl-amino)methylene]propanedioate] | 3400 nM | 30 nM | – |
| c1ccc(Oc2ccc3c(c2)SC2=NCCN23)cc1 [7-OC6 H5] | 450 nM | 95 nM | – |
| COc1cc(CNc2ccc3c(c2)SC2=NCCN23)cc(OC)c1OC [7-NHCH2 [3,4,5-(OCH3)3C6 H2]] | 20000 nM | 70 nM | – |
| CCCc1ccc2c(c1)SC1=NC(c3ccccc3)CN12 (stereo not shown) [2-C6 H5,7-C3 H7] | 2500 nM | 6000 nM | – |
| Clc1cccc2c1N1CCN=C1S2 [Example 5-Cl] | 120 nM | 600 nM | – |
| CCNc1cccc2c1SC1=NCCN12 [8-NHC2 H5] | 2 nM | 40000 nM | – |
| CCCCCCc1ccc2c(c1)SC1=NCCN12 [7-C6 H13] | 20 nM | 40 nM | – |
| c1c2c(cc3c1SC1=NCCN13)CCC2 [6,7-(CH2)3] | 55 nM | 12000 nM | – |
| CCC(CC)Nc1ccc2c(c1)N1CCN=C1S2 [6-NHCH(C2 H5)2] | 6 nM | 1800 nM | – |
| C#CCNc1ccc2c(c1)SC1=NCCN12 | 800 nM | 55000 nM | – |
| CC(=O)Nc1ccc2c(c1)N1CCN=C1S2 [Example 6-NHCOCH3, N-(2,3-dihydroimidazo[2,1-b]benzothiazol-6-yl)acetamide] | 1800 nM | 85000 nM | – |
| O=C(c1ccccc1)c1ccc2c(c1)N1CCN=C1S2 [6-COC6 H5, (2,3-dihydroimidazo[2,1-b]benzothiazol-6-yl)phenylmethanone monohydrochloride] | 220 nM | 3000 nM | – |
| CCNc1ccc2c(c1)N1CCN=C1S2 [6-NHC2 H5, N-ethyl-2,3-dihydroimidazo[2,1-b]benzothiazol-6-amine] | 18 nM | 40000 nM | – |
| CCNc1ccc2c(c1)SC1=NCCN12 [7-NHC2 H5] | 100 nM | 45000 nM | – |
| Oc1ccc2c(c1)SC1=NCCN12 [Example 7-OH, 2,3-dihydroimidazo[2,1-b]benzothiazol-7-ol monohydrobromide] | 2000 nM | – | – |
| NC(=O)Nc1ccc2c(c1)N1CCN=C1S2 [Example 6-NHCONH2, N-(2,3-dihydroimidazo[2,1-b]benzothiazol-6-yl)urea] | 1600 nM | 12000 nM | – |
| CC(C)Nc1ccc2c(c1)N1CCN=C1S2 [6-NHi . C3 H7, 2,3-dihydro-N-(1-methylethyl)imidazo[2,1-b]benzothiazol-6-amine] | 18 nM | 34000 nM | – |
| c1ccc2c3c(ccc2c1)SC1=NCCN13 [5,6-(CHCHCHCH)] | 6 nM | 4000 nM | – |
| Cc1cccc2c1N1CCN=C1S2 [Example 5-CH3] | 220 nM | 4000 nM | – |
| CCc1ccc2c(c1)N1CCN=C1S2 [6-C2 H5] | 140 nM | 10000 nM | – |
| CCCCCCN(C=C(C(=O)OCC)C(=O)OCC)c1ccc2c(c1)SC1=[N+](CCCCCC)CCN12 | – | – | 1800 nM |
| c1cc2c(cc1C1CCCCC1)SC1=NCCN12 [7-c . C6 H 11] | 12 nM | 65 nM | – |
